According to patent US20220144853A1, “IMIDAZOLINE DERIVATIVES AS CXCR4 MODULATORS” (Université de Paris, priority 2019, published 2022):
Counter-ions that a name gives are not always drawn.

test system: IFN production by activated PBMCs; test: IFN production by R848-activated PBMCs from healthy donors, twINNE reporter cell line; type: cell-based, human; conditions: Homo sapiens, PBMC, means of two results over 2 healthy donors, R848 5 μg/mL, IT1t: mean over all experiments, read-out: IC50 of anti-inflammatory activity (IFN production)
Experimental: 2) The blood from healthy donors was also obtained from “Etablissement Français du Sang” (convention #19/EFS/029), Paris, France.
In vitro experiments were performed using human peripheral blood mononuclear cells (PBMCs) isolated by density centrifugation from peripheral blood leukocyte separation medium, lymphoprep (Stemcell Technologies).
PBMCs were cultured in RPMI 1640 (Sigma-Aldrich, MO, USA) containing 10% heat-inactivated fetal bovine serum (Sigma-Aldrich, MO, USA) at 37° C./5% CO2.
2) The PBMCs used herein were prepared as described in part A “immune cells preparation”, section 2) above. PBMCs were seeded at 4.10^6/mL. […] Cells were then stimulated with the TLR7/8 agonist resiquimod—R848 (Sigma-Aldrich, MO, USA) at 5 μg/mL.
2) To quantify the secretion of functional IFN, a biological assay based on a stable cell line where luciferase reporter gene is controlled by five Interferon-Stimulated Response Elements (twINNE cell line) was used. It is important to note that the twINNE cell line is the same as the above mentioned STING-37 cell line but with constitutively expressed nanoluciferase. First, supernatants of R848-stimulated PBMCs (see part B, section 2) above) were harvested after 24 h of stimulation and frozen at −20° C. for storage. Then, supernatants were dispensed in culture wells of a 96-well plate containing 35.103 twINNE cells per well in Dulbecco's Modified Eagle's Medium supplemented with 10% Foetal Bovine Serum, 100 U/mL Penicillin and 100 μg/mL Streptomycin (1% Pen-Strep) and 1 mM glutamine (Sigma-Aldrich, MO, USA) at 37° C./5% […]. After 24 h of culture, luciferase activity was determined by adding 60 μL of Bright-Go reagents (Promega, Wisconsin, USA) to culture wells and measuring bioluminescence with EnSpire Multimode Plate Reader (PerkinElmer, Massachusetts, USA). When stated, for IC50 calculation, dose-response curves fitted using the nonlin fit (variable slope) analysis in GraphPad Prism software (GraphPad Software, California, USA).

Compound	IC50 [µM]
C1=C(CSC2=NCCN2)N2C(=N[C@H]3CCCCC32)S1 (mixture of isomers) [Example 59, trans-3-(((4,5-dihydro-1H-imidazol-2-yl)thio)methyl)-4a,5,6,7,8,8a-hexahydrobenzo[4,5]imidazo[2,1-b]thiazole dihydrochloride]	≤ 10
CC(C)C1CN=C(SCC2=CSC3=NC(C)(C)CN23)N1 (stereo not drawn) [Example 49, 3-(((5-isopropyl-4,5-dihydro-1H-imidazol-2-yl)thio)methyl)-6,6-dimethyl-5,6-dihydroimidazo[2,1-b]thiazole dihydrochloride]	10 to 31
C1=C(CSC2=N[C@@H]3CCCC[C@H]3N2)N2CCCN=C2S1 [Example 45, 3-((((3aR,7aR)-3a,4,5,6,7,7a-hexahydro-1H-benzo[d]imidazol-2-yl)thio)methyl)-6,7-dihydro-5H-thiazolo[3,2-a]pyrimidine dihydrochloride]	≥ 31
CC1(C)CN=C(SCCn2ccnc2)N1 [Example 47, 1-(2-((5,5-dimethyl-4,5-dihydro-1H-imidazol-2-yl)thio)ethyl)-1H-imidazole dihydrochloride]	≥ 31
CC1(C)CN2C(CSC3=NCCN3)=CSC2=N1 [Example 8, 3-(((4,5-dihydro-1H-imidazol-2-yl)thio)methyl)-6,6-dimethyl-5,6-dihydroimidazo[2,1-b]thiazole dihydrochloride]	10 to 31
CC1(C)CN2C(=N1)SC(I)=C2CSC1=NCC(C)(C)N1 [Example 66, 3-(((5,5-dimethyl-4,5-dihydro-1H-imidazol-2-yl)thio)methyl)-2-iodo-6,6-dimethyl-5,6-dihydroimidazo[2,1-b]thiazole dihydrochloride]	≤ 10
CC1(C)CN=C(SCC2=CSC3=NCCCCN23)N1 [Example 15, 3-(((5,5-dimethyl-4,5-dihydro-1H-imidazol-2-yl)thio)methyl)-5,6,7,8-tetrahydrothiazolo[3,2-a][1,3]diazepine dihydrochloride]	≥ 31
c1ccc(CC2CN=C(SCCCc3ccc4c(n3)NCCC4)N2)cc1 (stereo not drawn) [Example 68, 7-(3-((5-benzyl-4,5-dihydro-1H-imidazol-2-yl)thio)propyl)-1,2,3,4-tetrahydro-1,8-naphthyridine dihydrochloride]	10 to 31
C1=C(CSC2=NCC(Cc3ccccc3)N2)N2CCCN=C2S1 (stereo not drawn) [Example 48, 3-(((5-benzyl-4,5-dihydro-1H-imidazol-2-yl)thio)methyl)-6,7-dihydro-5H-thiazolo[3,2-a]pyrimidine dihydrochloride]	≤ 10
C1=C(CSC2=NCCN2)N2CCCN=C2S1 [Example 26, 3-(((4,5-dihydro-1H-imidazol-2-yl)thio)methyl)-6,7-dihydro-5H-thiazolo[3,2-a]pyrimidine dihydrochloride]	≥ 31
CC1(C)CN=C(SCCc2cccc3ncccc23)N1 [Example 41, 5-(2-((5,5-dimethyl-4,5-dihydro-1H-imidazol-2-yl)thio)ethyl)quinoline dihydrochloride]	≥ 31
CCCCC1CN=C(SCC2=CSC3=N[C@H]4CCCCC4N23)N1 (mixture of isomers) [Example 54, trans-3-(((5-butyl-4,5-dihydro-1H-imidazol-2-yl)thio)methyl)-4a,5,6,7,8,8a-hexahydrobenzo[4,5]imidazo[2,1-b]thiazole dihydrochloride]	≤ 10
CC1(C)CN=C(SCC2=CSC3=NC(c4ccccc4)CN23)N1 (stereo not drawn) [Example 50, 3-(((5,5-dimethyl-4,5-dihydro-1H-imidazol-2-yl)thio)methyl)-6-phenyl-5,6-dihydroimidazo[2,1-b]thiazole dihydrochloride]	10 to 31
CCCCC1CN=C(SCC2=CSC3=NC(C)(C)CN23)N1 (stereo not drawn) [Example 13, 3-(((5-butyl-4,5-dihydro-1H-imidazol-2-yl)thio)methyl)-6,6-dimethyl-5,6-dihydroimidazo[2,1-b]thiazole dihydrochloride]	≤ 10
CC1(C)CN=C(SCC2=CSC3=N[C@H]4CCCC(C4)N23)N1 (racemic) [Example 23, cis-3-(((5,5-dimethyl-4,5-dihydro-1H-imidazol-2-yl)thio)methyl)-6,7,8,9-tetrahydro-5H-5,9-methanothiazolo[3,2-a][1,3]diazocine dihydrochloride]	≥ 31
CC1(C)CN=C(SCC2=CSC3=NCCCN23)N1 [Example 14, 3-(((5,5-dimethyl-4,5-dihydro-1H-imidazol-2-yl)thio)methyl)-6,7-dihydro-5H-thiazolo[3,2-a]pyrimidine dihydrochloride]	≥ 31
C1=C(CSC2=NCCN2)N2CCCCN=C2S1 [Example 27, 3-(((4,5-dihydro-1H-imidazol-2-yl)thio)methyl)-5,6,7,8-tetrahydrothiazolo[3,2-a][1,3]diazepine dihydrochloride]	≥ 31
C1=C(CSC2=NCC(Cc3ccccc3)N2)N2CC(Cc3ccccc3)N=C2S1 (stereo not drawn) [Example 60, 6-benzyl-3-(((5-benzyl-4,5-dihydro-1H-imidazol-2-yl)thio)methyl)-5,6-dihydroimidazo[2,1-b]thiazole dihydrochloride]	≤ 10
C1=C(CSC2=N[C@H]3COC[C@H]3N2)N2C(=N[C@@H]3COC[C@@H]32)S1 (mixture of isomers) [Example 36, mixture of (4aS,7aR)-3-((((3aS,6aR)-3a,4,6,6a-tetrahydro-1H-furo[3,4-d]imidazol-2-yl)thio)methyl)-4a,5,7,7a-tetrahydrofuro[3′,4′:4,5]imidazo[2,1-b]thiazole dihydrochloride and (4aR,7aS)-3-((((3aR,6aS)-3a,4,6,6a-tetrahydro-1H-furo[3,4-d]imidazol-2-yl)thio)methyl)-4a,5,7,7a-tetrahydrofuro[3′,4′: 4,5]imidazo[2,1-b]thiazole dihydrochloride]	≥ 31
CC1(C)CN2C(CSC3=NCCCN3)=CSC2=N1 [Example 9, 6,6-dimethyl-3-(((1,4,5,6-tetrahydropyrimidin-2-yl)thio)methyl)-5,6-dihydroimidazo[2,1-b]thiazole dihydrochloride]	≥ 31
CC1(C)CN2C(CSC3=NCC(c4ccccc4)N3)=CSC2=N1 (stereo not drawn) [Example 53, 6,6-dimethyl-3-(((4-phenyl-4,5-dihydro-1H-imidazol-2-yl)thio)methyl)-5,6-dihydroimidazo[2,1-b]thiazole dihydrochloride]	≤ 10
CC(C)[C@@H]1N=C2SC=C(CSC3=NCC(C)(C)N3)N2[C@H]1C(C)C (racemic) [Example 62, trans-3-(((5,5-dimethyl-4,5-dihydro-1H-imidazol-2-yl)thio)methyl)-5,6-diisopropyl-5,6-dihydroimidazo[2,1-b]thiazole dihydrochloride]	10 to 31
CC1(C)CN=C(SCCCc2cccnc2)N1 [Example 31, 3-(3-((5,5-dimethyl-4,5-dihydro-1H-imidazol-2-yl)thio)propyl)pyridine dihydrochloride]	≥ 31
C1=C(CSC2=N[C@H]3CCCC[C@@H]3N2)N2C(=N[C@H]3CCCCC32)S1 (mixture of isomers) [Example 56, trans-3-((((3aS,7aS)-3a,4,5,6,7,7a-hexahydro-1H-benzo[d]imidazol-2-yl)thio)methyl)-4a,5,6,7,8,8a-hexahydrobenzo[4,5]imidazo[2,1-b]thiazole dihydrochloride]	≤ 10
CC1(C)CN=C(SCCCn2ccnc2)N1 [Example 38, 1-(3-((5,5-dimethyl-4,5-dihydro-1H-imidazol-2-yl)thio)propyl)-1H-imidazole dihydrochloride]	≥ 31
C1=C(CSC2=N[C@@H]3CCCC[C@H]3N2)N2CC(Cc3ccccc3)N=C2S1 (stereo partly drawn) [Example 61, 6-benzyl-3-((((3aR,7aR)-3a,4,5,6,7,7a-hexahydro-1H-benzo[d]imidazol-2-yl)thio)methyl)-5,6-dihydroimidazo[2,1-b]thiazole dihydrochloride]	≤ 10
C1=C(CSC2=NCCN2)N2CCN=C2S1 [Example 6, 3-(((4,5-dihydro-1H-imidazol-2-yl)thio)methyl)-5,6-dihydroimidazo[2,1-b]thiazole dihydrochloride]	10 to 31
CC1(C)CN=C(SCC2=CSC3=NCCN23)N1 [Example 21, 3-(((5,5-dimethyl-4,5-dihydro-1H-imidazol-2-yl)thio)methyl)-5,6-dihydroimidazo[2,1-b]thiazole dihydrochloride]	10 to 31
CC1(C)CN2C(CSC3=NCC4(CCCCC4)N3)=CSC2=N1 [Example 39, 3-(((1,3-diazaspiro[4.5]dec-2-en-2-yl)thio)methyl)-6,6-dimethyl-5,6-dihydroimidazo[2,1-b]thiazole dihydrochloride]	10 to 31
C1=C(CSC2=NCC(Cc3ccccc3)N2)N2C(=N[C@H]3CCCCC32)S1 (mixture of isomers) [Example 55, trans-3-(((5-benzyl-4,5-dihydro-1H-imidazol-2-yl)thio)methyl)-4a,5,6,7,8,8a-hexahydrobenzo[4,5]imidazo[2,1-b]thiazole dihydrochloride]	≤ 10
